Values quoted from earlier work in patent US5162307A, “Polymer bound elastase inhibitors” (Board of Trustees of the University of Kentucky, priority 1992, dated 1992).

Columns and labels:
[1] = in vivo
[2] = tested on: rabbits; details: rabbit, in vivo
[3] = tested on: guinea pigs; details: guinea pig, in vivo

organ weight ([1]; iv): do not induce any significant changes
total weight gain ([1]; iv): do not induce any significant changes
immune response (antigenicity) [2]: no evidence of an immune response
immune response (antigenicity) [3]: no evidence of an immune response
Substance: poly α, β-[N-(2-hydroxyethyl)-D,L-aspartamide] [PHEA]
effect on the biosynthetic mechanism of the serum proteins or of blood cells [1]: no adverse effect
toxicity [1]: lack toxicity
